Measured values reported in paper PMC4660442, “Identification of potential inhibitors based on compound proposal contest: Tyrosine-protein kinase Yes as a target” (Scientific Reports, 2015).

Molecular target: T1, tyrosine-protein kinase Yes (Homo sapiens, UniProt P07947)
T1 construct: gene YES1
Assay: reference inhibitor in ADP-Glo kinase assay, recombinant human Yes; no value given
Assay type: biochemical

T1 sequence (P07947 2-543): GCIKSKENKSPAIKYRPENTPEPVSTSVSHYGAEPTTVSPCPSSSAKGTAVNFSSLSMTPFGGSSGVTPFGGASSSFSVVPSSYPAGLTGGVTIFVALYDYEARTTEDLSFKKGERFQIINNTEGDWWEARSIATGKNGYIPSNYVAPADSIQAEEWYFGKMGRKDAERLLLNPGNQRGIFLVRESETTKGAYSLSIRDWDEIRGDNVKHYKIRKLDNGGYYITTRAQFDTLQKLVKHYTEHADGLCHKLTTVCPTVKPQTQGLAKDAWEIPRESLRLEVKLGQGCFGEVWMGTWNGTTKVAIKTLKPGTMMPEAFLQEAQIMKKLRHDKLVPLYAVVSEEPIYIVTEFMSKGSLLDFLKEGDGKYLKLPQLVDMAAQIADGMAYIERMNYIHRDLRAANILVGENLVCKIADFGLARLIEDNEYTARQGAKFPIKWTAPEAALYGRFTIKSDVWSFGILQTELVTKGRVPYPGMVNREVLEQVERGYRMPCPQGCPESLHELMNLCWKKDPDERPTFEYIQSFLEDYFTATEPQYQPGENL

Compound: CN[C@@H]1C[C@H]2O[C@@](C)([C@@H]1OC)n1c3ccccc3c3c4c(c5c6ccccc6n2c5c31)C(=O)NC4 [Staurosporine]
- reference inhibitor in ADP-Glo kinase assay, recombinant human Yes; no value pri: Staurosporine, a well-known pan-kinase inhibitor typically used as a reference in kinase assays, was selected as an active inhibitor for Yes
